{"source": "patent US8999071B2", "about": "“Surfactants derived from oligoglycerols” (Dow Global Technologies LLC, priority 2011, dated 2015)", "format_in_all_cases": "physicochemical", "key": {"[1]": {"experiment": "Dynamic surface tension, maximum bubble pressure method (Kruss BP-2)", "procedure": "Dynamic surface tension is measured using a Kruss BP-2 Bubble Pressure Tensiometer. During the test, high purity nitrogen gas bubbles are produced in the surfactant solution at an exactly defined bubble generation rate. The gas bubbles enter the liquid through a glass capillary of known radius (0.223 mm). During this process the pressure passes through a maximum whose value is recorded by the instrument. Surface tension is then calculated from the maximum pressure during bubble formation, and reported as a function of bubble surface age, in ms, and bubble frequency. The measurements are made at ambient temperature.\nDynamic surface tension of surfactants at varying surface ages (presented as bubble frequency) are measure by bubble pressure method on Kruss BP2 tensiometer at 0.1 wt % concentration and 25° C."}, "[2]": {"experiment": "Caustic stability: solubility in NaOH solution", "procedure": "The caustic stability of compounds 1 and 2 is measured by their solubility in 10 wt % NaOH solution: stock solutions are prepared at 1 wt %. Into a sample vial, 1.0 gram of a stock solution is weighed and then 9.0 grams of 11.1 wt % NaOH solution is added to get a 0.1 wt % surfactant solution in 10% NaOH. Both solutions are clear at this condition. In contrast, Tomadol® 91-6 (C9-C11 alcohols ethoxylated to 6EO, cloud point=52° C.) solution (0.1 wt %) becomes cloudy at 5% NaOH content."}, "[3]": {"experiment": "Acidic stability: appearance and shake foam in 0.01 M HCl", "procedure": "The acidic stability of compounds 1 and 2 are tested and compared with Triton™ CG-110 in 0.01 M HCl: solutions are prepared in 0.01 M HCl at 0.1 wt % surfactant concentration. Compound 1 solution is cloudy at this HCl concentration, indicating its cloud point is reduced by the presence of HCl."}, "[4]": {"experiment": "Surface tension and critical micelle concentration, Kruss K100 tensiometer with Wilhelmy plate", "settings": "25° C., FIG. 1", "procedure": "The surface tension and critical micelle concentration (cmc) of a surfactant solution is measured using Kruss K100 Surface Tensiometer fitted with a Wilhelmy platinum plate. A standard method is utilized. In this method, an increment of surfactant solution is added using a Dosimat™ dosimeter to the vessel initially containing deionized water, and then thoroughly stirred. The surface tension of the resulting solution is then measured. The process is repeated at each concentration data point. Two measurements are made for each system at ambient temperature.\nSurface tension-Concentration data for the compound 3 at 25° C. are plotted in FIG. 1."}, "[5]": {"experiment": "Dynamic surface tension, maximum bubble pressure method (Kruss BP-2)", "remark": "listed apart in the source"}}}
{"smiles": "CCCCCCCCCOCC(O)COCC(O)CO", "note": "(stereo not drawn) [Compound 1, 3-[3-(nonyloxy)-2-hydroxypropoxy]-1,2-propanediol]", "values": [{"measurement": "surface tension over the whole tested range of ageing time compared to C12TG, C11DG and C10DG", "setting": "[1]; 0.1 wt %, 25° C., FIG. 2", "value": "lower surface tension"}, {"measurement": "Surface Tension @ 6 bubbles/sec., 0.1 wt %", "setting": "[1]; 25° C.", "value": 35.6, "unit": "dyne/cm"}, {"measurement": "appearance of 0.1 wt % surfactant solution in 10% NaOH", "setting": "[2]", "value": "clear"}, {"measurement": "acidic stability compared with Triton CG-110", "setting": "[3]; 0.01 M HCl", "value": "improved stability"}, {"measurement": "Foam Volume, 20 h", "setting": "[3]; 0.1 wt % in 0.01M HCl, 10 ml, shaken at high for 10 min., after 20 hours in air at room temperature", "value": 17, "unit": "mL"}, {"measurement": "Foam Volume, 0 h", "setting": "[3]; 0.1 wt % in 0.01M HCl, 10 ml, shaken at high for 10 min., right after preparation", "value": 17, "unit": "mL"}, {"measurement": "foam persistence after shaking, 20 h", "setting": "[3]; 0.1 wt % in 0.01M HCl, after 20 hours at room temperature", "value": "no change"}, {"measurement": "foam persistence after shaking, 0 h", "setting": "[3]; 0.1 wt % in 0.01M HCl, right after preparation", "value": "no change"}, {"measurement": "appearance of solution in 0.01 M HCl", "setting": "[3]; 0.1 wt % surfactant, 0.01 M HCl", "value": "cloudy"}]}
{"smiles": "CCCCCCCCCCOCC(O)COCC(O)COCC(O)CO", "note": "(stereo not drawn) [Compound 2, 3-(3-(3-(decyloxy)-2-hydroxypropoxy)-2-hydroxypropoxy)propane-1,2-diol]", "values": [{"measurement": "acidic stability compared with Triton CG-110", "setting": "[3]; 0.01 M HCl", "value": "improved stability"}]}
{"smiles": "CCCCCC(CCC)COCC(O)COCC(O)CO", "note": "(stereo not drawn) [Compound 3, 3-(2-hydroxy-3-((2-propylheptyl)oxy)propoxy)propane-1,2-diol]", "values": [{"measurement": "critical micelle concentration (cmc)", "setting": "[4]", "value": "about 700 ppm"}, {"measurement": "water surface tension after reaching critical micelle concentration", "setting": "[4]", "value": "26-27 dynes/cm"}, {"measurement": "surface tension at bubble frequency larger than 10 bubbles/sec", "setting": "[1]; 0.1 wt %, 25° C., >10 bubbles/sec, FIG. 2", "value": "around 37 dynes/cm"}, {"measurement": "surface tension in the whole range of surface ageing time compared to the Lutensol products", "setting": "[1]; 0.1 wt %, 25° C., FIG. 2", "value": "lower surface tension"}, {"measurement": "surface tension over the whole tested range of ageing time compared to C12TG, C11DG and C10DG", "setting": "[1]; 0.1 wt %, 25° C., FIG. 2", "value": "lower surface tension"}, {"measurement": "surface tension at lower bubble frequency compared to Surfynol 420", "setting": "[1]; 1-6 bubbles/sec., 0.1 wt %, FIG. 2", "value": "significantly lower surface tension"}, {"measurement": "Surface Tension @ 6 bubbles/sec., 0.1 wt %", "setting": "[1]; 25° C.", "value": 33.3, "unit": "dyne/cm"}, {"measurement": "Surface Tension @ 6 bubbles/sec., 0.05 wt %", "setting": "[5]", "value": 39.4, "unit": "dyne/cm"}]}
{"smiles": "CCCCCCCCCCOCC(O)COCC(O)CO", "note": "(stereo not drawn) [Compound 4, 3[3-(decyloxy)-2-hydroxypropoxy]-1,2-propanediol]", "values": [{"measurement": "Surface Tension @ 6 bubbles/sec., 0.1 wt %", "setting": "[1]; 25° C.", "value": 43.8, "unit": "dyne/cm"}]}
{"smiles": "CCCCCCCCCCCOCC(O)COCC(O)CO", "note": "(stereo not drawn) [Compound 6, 3-(2-hydroxy-3-(undecyloxy)propoxy)propane-1,2-diol]", "values": [{"measurement": "Surface Tension @ 6 bubbles/sec., 0.1 wt %", "setting": "[1]; 25° C.", "value": 61.4, "unit": "dyne/cm"}]}
{"smiles": "CCCCCCCCCCCCOCC(O)COCC(O)COCC(O)CO", "note": "(stereo not drawn) [Compound C12TG, 3-(3-(3-(dodecyloxy)-2-hydroxypropoxy)-2-hydroxypropoxy)propane-1,2-diol, reference compound]", "values": [{"measurement": "Surface Tension @ 6 bubbles/sec., 0.1 wt %", "setting": "[1]; 25° C.", "value": 56.9, "unit": "dyne/cm"}]}
